Test results from PMC2009384, “The carcinogenicity of polycyclic hydrocarbon epoxides in newborn mice” (British Journal of Cancer, 1975).

Test system: newborn Swiss mice
Experiment: Experiment II: carcinogenicity in newborn mice, chrysene, 7-methylbenz(a)anthracene and K region epoxides (s.c. injection, tumour incidence to 70-75 weeks)
Details: for incidence of lung tumours / liver tumour incidence: 3 x 100 µg s.c., newborn; for incidence of lung tumours: 7-methylbenz(a)anthracene pair
Excerpt: Br. J. Cancer (1975) 31, 182 THE CARCINOGENICITY OF POLYCYCLIC HYDROCARBON EPOXIDES IN NEWBORN MICE P. L. GROVER, P. SIMS, B. C. V. MITCHLEY AND F. J. C. ROE From the Chester Beatty Research Institute, Institute of Cancer Research, Royal Cancer Hospital, Fulham Road, London, SW3 6JB Received 9 August 1974. […] THE HYPOTHESIS that the carcino- genicity of polycyclic hydrocarbons is associated with the formation of epoxide metabolites (Grover, Hewer and Sims, 1971, 1972; Keysell et al., 1973) is sup- ported by some experimental evidence but remains unproven. […] The epoxides can also act as alkylating agents (Grover and Sims, 1970) and as mutagens (Ames, Sims and Grover, 1972; Huberman et al., 1971; Cookson, Sims and Grover, 1971; Fahmy and Fahmy, 1973). […] The newborn mouse, which is susceptible to carcinogenic polycyclic hydrocarbons (Roe, Rowson and Salaman, 1961; Roe, Mitchley and Walters, 1963; Walters and Roe, 1964, 1966) can be considered as a convenient source of several types of rapidly dividing cells. Consequently we have tested the K region epoxides derived from phenanthrene, benz(a)anthracene, 7-methylbenz(a)anthracene, dibenz(a,h)- anthracene, chrysene and 3-methylchol- anthrene, together with some of the CARCINOGENICITY OF POLYCYCLIC HYDROCARBON EPOXIDES IN MICE 183 parent hydrocarbons, for carcinogenicity using newborn mice. This paper presents the results that were obtained in these experiments. MATERIALS AND METHODS The polycyclic hydrocarbon epoxides, phenanthrene 9,10-oxide, benz(a)anthracene 5,6-oxide, 7-methylbenz(a)anthracene 5,6- oxide, dibenz(a,h)anthracene 5,6-oxide, chry- sene 5,6-oxide and 3-methylcholanthrene 11,12-oxide were prepared from the parent hydrocarbons (Newman and Blum, 1964; Boyland and Sims, 1965; Sims 1966). Two experiments were undertaken fol- lowing similar protocols. For each experi- ment Swiss mice from a specific pathogen- free colony were time mated so as to produce a large number of litters over the course of 2 or 3 days. […] Test compounds were suspended in poly- ethylene glycol (PEG) 400 and injections of 0-02 ml of the suspension were given by introducing a 25 gauge hypodermic needle through the skin near the root of the tail and threading it subcutaneously to deliver the injected material in the interscapular region. Injections were given to every mouse on the first day or first 3 days of life. The details of treatments and numbers of mice of each sex in each group are shown in Table I (Experiment I) and Table II (Ex- periment II). Surviving mice were weaned when they w ere 21 days old. Thereafter, males and females w ere separated and housed 6 per cage in metal boxes. A mixture of sawdust and wood shavings was used as bedding. The mice were fed on a standard cubed diet (Formulation 86 from C. Holdman and Sons (Plow co Feeds), Byers Lane, South Godstone, Surrey) and water was given ad libitum. Mice were inspected daily, and at weekly intervals they were weighed and palpated for tumours and other lesions. […] The experiment was terminated when surviving mice were between 70 and 75 weeks old. A full routine post- mortem examination, which included disten- sion of the urinary bladder with fixative, was carried out. The number of lesions thought to be neoplasms and the size of the largest such lesion in each organ affected were recorded. All tissues with suspected neoplasms were fixed in Bouin's solution. Haematoxylin and eosin stained 5 µm paraffin wax sections were prepared and examined microscopically. RESULTS The results of the two experiments in terms of tumour incidence are sum- marized in […].

[1] = females, 60 µg, 1 treatment (Day 0 only) s.c. in PEG 400
[2] = males, 60 µg, 1 treatment (Day 0 only) s.c. in PEG 400
[3] = females, 100 µg per treatment, 3 treatments
[4] = females, 100 µg per treatment, 3 treatments (Days 0, 1 and 2) s.c. in PEG 400
[5] = males, 100 µg per treatment, 3 treatments
[6] = males, 100 µg per treatment, 3 treatments (Days 0, 1 and 2) s.c. in PEG 400

SMILES: Cc1ccc2cc3c(c4c2c1CC4)C1OC1c1ccccc1-3 (stereo not drawn) [3-Methylcholanthrene 11,12-oxide]
- No. of mice examined at p.m. at termination of experiment (70-75th week) with liver tumours (females, 60 µg, 1 treatment): 0
- No. of mice examined at p.m. at termination of experiment (70-75th week) with lung tumours (females, 60 µg, 1 treatment): 3
- No. of mice examined at p.m. at termination of experiment (70-75th week) with multiple liver tumours (females, 60 µg, 1 treatment): 0
- No. of mice examined at p.m. at termination of experiment (70-75th week) with multiple lung tumours (females, 60 µg, 1 treatment): 1
- No. of mice examined at p.m. at termination of experiment (70-75th week) with other tumours (females, 60 µg, 1 treatment): 0
- No. of mice examined at p.m. from 50-70th week with liver tumours (females, 60 µg, 1 treatment): 0
- No. of mice examined at p.m. from 50-70th week with lung tumours (females, 60 µg, 1 treatment): 0
- No. of mice examined at p.m. from 50-70th week with other tumours (females, 60 µg, 1 treatment): 0
- No. of survivors at 50 weeks [1]: 27
- No. of survivors at 70 weeks [1]: 25
- effect on the incidence of liver, lung or other tumours (in the doses tested (3 x 100 µg or 1 x 60 µg)): without apparent effect
- No. of mice examined at p.m. at termination of experiment (70-75th week) with liver tumours (males, 60 µg, 1 treatment): 6
- No. of mice examined at p.m. at termination of experiment (70-75th week) with lung tumours (males, 60 µg, 1 treatment): 5
- No. of mice examined at p.m. at termination of experiment (70-75th week) with multiple liver tumours (males, 60 µg, 1 treatment): 1
- No. of mice examined at p.m. at termination of experiment (70-75th week) with multiple lung tumours (males, 60 µg, 1 treatment): 0
- No. of mice examined at p.m. at termination of experiment (70-75th week) with other tumours (males, 60 µg, 1 treatment): 0
- No. of mice examined at p.m. from 50-70th week with liver tumours (males, 60 µg, 1 treatment): 0
- No. of mice examined at p.m. from 50-70th week with lung tumours (males, 60 µg, 1 treatment): 0
- No. of mice examined at p.m. from 50-70th week with other tumours (males, 60 µg, 1 treatment): 0
- No. of survivors at 50 weeks [2]: 28
- No. of survivors at 70 weeks [2]: 26

SMILES: Cc1c2c(cc3ccccc13)-c1ccccc1C1OC21 (stereo not drawn) [7-Methylbenz(a)anthracene 5,6-oxide]
- incidence of lung tumours: slightly raised
- No. of mice examined at p.m. at termination of experiment (70-75th week) with liver tumours [3]: 0
- No. of mice examined at p.m. at termination of experiment (70-75th week) with lung tumours [3]: 6
- No. of mice examined at p.m. at termination of experiment (70-75th week) with multiple liver tumours [3]: 0
- No. of mice examined at p.m. at termination of experiment (70-75th week) with multiple lung tumours [3]: 3
- No. of mice examined at p.m. at termination of experiment (70-75th week) with other tumours [3]: 0
- No. of mice examined at p.m. from 50-70th week with liver tumours [3]: 0
- No. of mice examined at p.m. from 50-70th week with lung tumours [3]: 1
- No. of mice examined at p.m. from 50-70th week with other tumours [3]: 0
- No. of survivors at 50 weeks [4]: 25
- No. of survivors at 70 weeks [4]: 22
- No. of mice examined at p.m. at termination of experiment (70-75th week) with liver tumours [5]: 4
- No. of mice examined at p.m. at termination of experiment (70-75th week) with lung tumours [5]: 2
- No. of mice examined at p.m. at termination of experiment (70-75th week) with multiple liver tumours [5]: 2
- No. of mice examined at p.m. at termination of experiment (70-75th week) with multiple lung tumours [5]: 2
- No. of mice examined at p.m. at termination of experiment (70-75th week) with other tumours [5]: 0
- No. of mice examined at p.m. from 50-70th week with liver tumours [5]: 0
- No. of mice examined at p.m. from 50-70th week with lung tumours [5]: 0
- No. of mice examined at p.m. from 50-70th week with other tumours [5]: 0
- No. of survivors at 50 weeks [6]: 20
- No. of survivors at 70 weeks [6]: 20

SMILES: Cc1c2ccccc2cc2c1ccc1ccccc12 [7-Methylbenz(a)anthracene, reference compound]
- incidence of lung tumours: slightly raised
- No. of mice examined at p.m. at termination of experiment (70-75th week) with liver tumours [3]: 0
- No. of mice examined at p.m. at termination of experiment (70-75th week) with lung tumours [3]: 1
- No. of mice examined at p.m. at termination of experiment (70-75th week) with multiple liver tumours [3]: 0
- No. of mice examined at p.m. at termination of experiment (70-75th week) with multiple lung tumours [3]: 1
- No. of mice examined at p.m. at termination of experiment (70-75th week) with other tumours [3]: 1
- No. of mice examined at p.m. from 50-70th week with liver tumours [3]: 0
- No. of mice examined at p.m. from 50-70th week with lung tumours [3]: 7
- No. of mice examined at p.m. from 50-70th week with other tumours [3]: 1
- No. of survivors at 50 weeks [4]: 21
- No. of survivors at 70 weeks [4]: 10
- No. of mice examined at p.m. at termination of experiment (70-75th week) with liver tumours [5]: 1
- No. of mice examined at p.m. at termination of experiment (70-75th week) with lung tumours [5]: 3
- No. of mice examined at p.m. at termination of experiment (70-75th week) with multiple liver tumours [5]: 1
- No. of mice examined at p.m. at termination of experiment (70-75th week) with multiple lung tumours [5]: 3
- No. of mice examined at p.m. at termination of experiment (70-75th week) with other tumours [5]: 1
- No. of mice examined at p.m. from 50-70th week with liver tumours [5]: 11
- No. of mice examined at p.m. from 50-70th week with lung tumours [5]: 10
- No. of mice examined at p.m. from 50-70th week with other tumours [5]: 0
- No. of survivors at 50 weeks [6]: 23
- No. of survivors at 70 weeks [6]: 4
- activity in increasing the incidence of liver tumours in males compared with K region epoxide (neonatally injected, 3 x 100 µg): more active than its K region epoxide

SMILES: c1ccc2c(c1)-c1ccc3ccccc3c1C1OC21 (stereo not drawn) [Chrysene 5,6-oxide]
- liver tumour incidence: increased
- No. of mice examined at p.m. at termination of experiment (70-75th week) with liver tumours [3]: 1
- No. of mice examined at p.m. at termination of experiment (70-75th week) with multiple liver tumours [3]: 0
- No. of mice examined at p.m. at termination of experiment (70-75th week) with multiple lung tumours [3]: 0
- No. of mice examined at p.m. at termination of experiment (70-75th week) with other tumours [3]: 0
- No. of mice examined at p.m. from 50-70th week with liver tumours [3]: 0
- No. of mice examined at p.m. from 50-70th week with lung tumours [3]: 0
- No. of mice examined at p.m. from 50-70th week with other tumours [3]: 0
- No. of survivors at 50 weeks [4]: 22
- No. of survivors at 70 weeks [4]: 20
- No. of mice examined at p.m. at termination of experiment (70-75th week) with liver tumours [5]: 8
- No. of mice examined at p.m. at termination of experiment (70-75th week) with lung tumours [5]: 0
- No. of mice examined at p.m. at termination of experiment (70-75th week) with multiple liver tumours [5]: 3
- No. of mice examined at p.m. at termination of experiment (70-75th week) with multiple lung tumours [5]: 0
- No. of mice examined at p.m. at termination of experiment (70-75th week) with other tumours [5]: 0
- No. of mice examined at p.m. from 50-70th week with liver tumours [5]: 0
- No. of mice examined at p.m. from 50-70th week with lung tumours [5]: 0
- No. of mice examined at p.m. from 50-70th week with other tumours [5]: 0
- No. of survivors at 50 weeks [6]: 23
- No. of survivors at 70 weeks [6]: 21

SMILES: c1ccc2c(c1)ccc1c3ccccc3ccc21 [Chrysene, reference compound]
- liver tumour incidence: increased
- No. of mice examined at p.m. at termination of experiment (70-75th week) with liver tumours [3]: 0
- No. of mice examined at p.m. at termination of experiment (70-75th week) with lung tumours [3]: 0
- No. of mice examined at p.m. at termination of experiment (70-75th week) with multiple liver tumours [3]: 0
- No. of mice examined at p.m. at termination of experiment (70-75th week) with multiple lung tumours [3]: 0
- No. of mice examined at p.m. at termination of experiment (70-75th week) with other tumours [3]: 0
- No. of mice examined at p.m. from 50-70th week with liver tumours [3]: 0
- No. of mice examined at p.m. from 50-70th week with lung tumours [3]: 0
- No. of mice examined at p.m. from 50-70th week with other tumours [3]: 0
- No. of survivors at 50 weeks [4]: 22
- No. of survivors at 70 weeks [4]: 21
- No. of mice examined at p.m. at termination of experiment (70-75th week) with liver tumours [5]: 13
- No. of mice examined at p.m. at termination of experiment (70-75th week) with lung tumours [5]: 1
- No. of mice examined at p.m. at termination of experiment (70-75th week) with multiple liver tumours [5]: 6
- No. of mice examined at p.m. at termination of experiment (70-75th week) with multiple lung tumours [5]: 1
- No. of mice examined at p.m. at termination of experiment (70-75th week) with other tumours [5]: 0
- No. of mice examined at p.m. from 50-70th week with liver tumours [5]: 0
- No. of mice examined at p.m. from 50-70th week with lung tumours [5]: 0
- No. of mice examined at p.m. from 50-70th week with other tumours [5]: 0
- No. of survivors at 50 weeks [6]: 28
- No. of survivors at 70 weeks [6]: 27
